Results published in patent publication US5808137A, “Chalcones and esters thereof with antiproliferative activity in uterus, ovary and breast tumors” (Indena S.p.A., priority 1994, dated 1998).
Like-named read-outs stand apart in the source and are kept apart here.

Columns and labels:
[1] = system: uterus, ovary and breast tumour cell lines; assay: Antiproliferative activity on uterus, ovary and breast tumour cell lines; format: cell-based; conditions: result in words
Experimental: (§1) The evaluation of the estrogen receptor binding has been carried out on tumour cells of ovary and other organs. Cells were growth in a monolayer culture on the minimum essential medium added with calf serum and with 200 units/ml of penicillin to maintain the medium sterile. In order to make the tests reproducible, the cells were trypsinated every week and placed on plates at a density of […] and incubated at 37° C. under air atmosphere containing 5% CO2 and humidity. […] After 24 hours the substrate was replaced with fresh substrate and the chalcones dissolved in absolute ethanol were added. […] The treatment described above was repeated at 24 hours time intervals during the 72 hours time of the test. […] At the end of the incubation time, the cells were quickly washed with fresh substrate and incubated for 30 minutes with 1M NaOH. The radioactivity was measured by means of a scintiller and the binding specificity was calculated as the difference between the preparations containing or not diethylstilbestrol. The results are expressed as the number of binding sites per cell, according to conventional methods. The inhibition on the cell proliferation is evaluated by direct count of the cells comparing the growth of the controls versus that of the treated.

[2] = system: estrogen receptors of type II; assay: Binding affinity to estrogen receptors of type II (displacement of labelled estradiol in tumour cells); conditions: for IC50: read-out: IC50 *** Concentration giving a 50% displacement of labelled estradiol (40 nM) from the receptor, labelled estradiol 40 nM; for affinity to estrogen receptors of type II: result in words
Experimental: as §1

OVCA 433 cancer cells = assay: Antiproliferative activity on OVCA 433 cancer cells in vitro (direct cell count); format: cell-based; conditions: read-out: IC50 ** Concentration giving a 50% inhibition on cell proliferation
Experimental: as §1

[3] = biological target: estrogen receptors of type II; conditions: read-out: apparent affinity dissociation constant KD for estradiol; type II sites, rat uterus; cited from earlier work
human leukemia cells = conditions: result in words; cited from earlier work
[4] = OVCA433, OVCA 433 cancer cells in vitro, 72 hours test

Structure (SMILES) | antiproliferative activity on uterus, ovary and breast tumour cell lines [1] | IC50 [2] [µM] | affinity to estrogen receptors of type II [2] | IC50 (OVCA 433 cancer cells; [4]) [µM] | IC50 (OVCA 433 cancer cells; OVCA433, 72 h) [µM] | Kd [3] [µM] | inhibiting activity on the proliferation of human leukemia cells (human leukemia cells)
CC(C)=CCc1c(O)ccc(C(=O)/C=C/c2ccccc2)c1O [Chalcone S1, Isocordoin] | marked antiproliferative activity | 1.2 | remarkable affinity | 1.2 |  |  | 
COc1ccc(C(=O)/C=C/c2ccc(O)cc2)c(O)c1CC=C(C)C [Chalcone S2, 4-hydroxyderricin] | marked antiproliferative activity | 10.6 | remarkable affinity | 17 |  |  | 
COc1ccc(C(=O)/C=C/c2ccccc2O)c(O)c1CC=C(C)C [Chalcone S3, 2-hydroxyderricin] | marked antiproliferative activity | 18 | remarkable affinity | 4.2 |  |  | 
COc1ccc(C(=O)/C=C/c2cccc(O)c2)c(O)c1CC=C(C)C [Chalcone S4, 3-hydroxyderricin] | marked antiproliferative activity | 12.1 | remarkable affinity | 5 |  |  | 
O=C(/C=C/c1ccccc1)c1ccc(O)cc1O [Chalcone S5, 2',4'-dihydroxychalcone] | marked antiproliferative activity | 0.6 | remarkable affinity | 2.5 |  |  | 
O=C(/C=C/c1ccc(O)cc1)c1ccc(O)cc1O [Chalcone S6, 4,2',4'-trihydroxychalcone] | marked antiproliferative activity | 3.2 | remarkable affinity |  | 5 |  | 
CC(C)=CCOc1ccc(C(=O)/C=C/c2ccccc2)c(O)c1 [Chalcone S7, Cordoin] | marked antiproliferative activity | 4.2 | remarkable affinity | 6 |  |  | 
CC(C)=CCOc1ccc(C(=O)/C=C/c2ccc(O)cc2)c(O)c1 [Chalcone S8, 4-hydroxycordoin, reference compound] |  |  | no affinity |  |  |  | 
CC(C)=CCOc1ccc(C(=O)CCc2ccccc2)c(O)c1 [Chalcone S9, Dihydrocordoin, reference compound] |  |  | no affinity |  |  |  | 
C[C@]12CC[C@@H]3c4ccc(O)cc4CC[C@H]3[C@@H]1CC[C@@H]2O [estradiol] |  |  |  |  |  | 0.01 to 0.02 | 
O=c1c(O)c(-c2ccc(O)c(O)c2)oc2cc(O)cc(O)c12 [quercetin] |  |  |  |  |  |  | some inhibiting activity
